Test results reported in article PMC11078990, “Identification and characterization of small molecule inhibitors of the LINE-1 retrotransposon endonuclease” (Nature Communications, 2024).
Where “and” joins values, the source holds several entries; their conditions need not be identical. Identical values can stand only once.

What was measured:
APE1 = biological target: T1, APE1 (Homo sapiens, UniProt P27695); assay: APE1 fluorescent oligonucleotide activity assay (abasic site substrate); assay type: biochemical; conditions: for APE1 percent activity, Replicate 1 / APE1 percent activity, Replicate 2 / APE1 percent activity, Replicate 3 / APE1 percent activity, average: compound at 25 μM; for APE1 percent activity, average: average of 3 replicates; for activity at 25 µM: inhibitors at 25 μM, relative to 0 μM inhibitor control, mean ± s.d., 3 independent experiments, read-out: APE1 activity (%)
T1 construct: purchased New England Biolabs (NEB) M0282S

[1] = biological target: L1 EN (LINE-1 retrotransposon endonuclease domain) (Homo sapiens, UniProt O00370, N5T); assay: Fluorescent oligonucleotide EN nicking activity assay; assay type: biochemical
Chain of L1 EN (LINE-1 retrotransposon endonuclease domain) (O00370 1-239 N5T): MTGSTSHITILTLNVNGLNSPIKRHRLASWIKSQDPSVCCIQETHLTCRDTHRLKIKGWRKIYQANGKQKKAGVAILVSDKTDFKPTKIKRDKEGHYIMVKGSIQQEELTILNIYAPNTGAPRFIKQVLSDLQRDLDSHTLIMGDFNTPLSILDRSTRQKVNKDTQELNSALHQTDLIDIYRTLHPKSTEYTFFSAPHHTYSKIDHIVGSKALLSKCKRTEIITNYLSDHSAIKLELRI

[2] = tested on: substrate oligonucleotide used in the EN activity assay; assay type: binding; parameters: key to Binding Detected? (Y/N): Binding Detected? (Y/N); Binding Detected? (Y/N)
[3] = [Inhibitor] 10 μM, technical replicates 1-3, Fig. 2b source data, 10 µM
[4] = [Inhibitor] 10 μM, technical replicates 1-3, Fig. 2b source data, read-out: EN activity, percent of no inhibitor control
[5] = [Inhibitor] 50 μM, technical replicates 1-3, Fig. 2b source data, 50 µM
[6] = [Inhibitor] 50 μM, technical replicates 1-3, Fig. 2b source data, read-out: EN activity, percent of no inhibitor control
[7] = [Inhibitor] 100 μM, technical replicates 1-3, Fig. 2b source data, 100 µM
[8] = [Inhibitor] 100 μM, technical replicates 1-3, Fig. 2b source data, read-out: EN activity, percent of no inhibitor control
[9] = [Inhibitor] 250 μM, technical replicates 1-3, Fig. 2b source data, 250 µM
[10] = [Inhibitor] 250 μM, technical replicates 1-3, Fig. 2b source data, read-out: EN activity, percent of no inhibitor control
[11] = [Inhibitor] 500 μM, technical replicates 1-3, Fig. 2b source data, 500 µM
[12] = [Inhibitor] 500 μM, technical replicates 1-3, Fig. 2b source data, read-out: EN activity, percent of no inhibitor control
[13] = [Inhibitor] 1000 μM, technical replicates 1-3, Fig. 2b source data, 1000 µM
[14] = [Inhibitor] 1000 μM, technical replicates 1-3, Fig. 2b source data, read-out: EN activity, percent of no inhibitor control
[15] = [Inhibitor] 2500 μM, technical replicates 1-3, Fig. 2b source data, 2500 µM

Structure (SMILES) | APE1 percent activity, Replicate 1 (APE1) | APE1 percent activity, Replicate 2 (APE1) | APE1 percent activity, Replicate 3 (APE1) | APE1 percent activity, average (APE1) | activity at 25 µM (APE1) | EN activity, percent of no inhibitor control [1, 3] | remaining activity at 10 µM [1, 4] | EN activity, percent of no inhibitor control [1, 5] | remaining activity at 50 µM [1, 6] | EN activity, percent of no inhibitor control [1, 7] | remaining activity at 100 µM [1, 8] | EN activity, percent of no inhibitor control [1, 9] | remaining activity at 250 µM [1, 10] | EN activity, percent of no inhibitor control [1, 11] | remaining activity at 500 µM [1, 12] | EN activity, percent of no inhibitor control [1, 13] | remaining activity at 1000 µM [1, 14] | EN activity, percent of no inhibitor control [1, 15] | Binding Detected? (Y/N) [2] | further results
O=C(O)C1CCC(Cn2c(=S)[nH]c3ccc(F)cc3c2=O)CC1 (stereo not drawn) [AD41] | 117.184% | 102.457% | 114.725% | 111.455% | 112 ± 7.9% | 93.0871% and 88.0691% | 99.2% | 81.1063% and 95.3657% | 81.9% | 73.6781% and 70.7755% | 89.5% | 52.6672% and 53.2546% | 37.1% | 15.8485% and 15.0123% | 16.8% | 2.51% and 3.937% | 3.26% | -0.5395% and 2.354% and 1.088% | N | EN activity, percent of no inhibitor control ([1]; [Inhibitor] 5000 μM, technical replicates 1-3, Fig. 2b source data, 5000 µM): 3.138% and -0.1325% and -0.6231%
Cc1cc(O[C@H](C)C(=O)NC[C@H]2CC[C@H](C(=O)O)CC2)c2c3c(c(=O)oc2c1)CCC3 [AD50] | 117.885% | 112.48% | 116.717% | 115.694% | 116 ± 2.8% | 88.1732% and 95.3255% | 89.8% | 102.098% and 94.5993% | 99.1% | 99.5828% and 92.7301% | 105% | 85.2034% and 69.8502% | 78.9% | 1.6976% and 1.409% | 1.24% | 0.8764% and -0.04895% and -0.3009% |  | 1.256% and 0.4525% and 1.333% | N | EN activity, percent of no inhibitor control ([1]; [Inhibitor] 25 μM, technical replicates 1-3, Fig. 2b source data, 25 µM): 105.309% and 98.5437% and 118.945%
Cc1ccc(NC(=O)CSc2nc(-c3ccccc3F)nc3c2Cc2c(CO)cnc(C)c2O3)cc1 [AD28] | 117.021% | 119.222% | 118.718% | 118.32% | 118 ± 1.2% |  |  | 92.3894% and 103.331% | 89.2% | 86.184% and 81.609% | 79.1% | 59.9195% and 84.2317% and 41.5158% |  | 4.092% and 40.0005% and 32.2238% |  | 23.297% and 19.7447% | 37.6% |  | N | EN activity, percent of no inhibitor control ([1]; [Inhibitor] 1 μM, technical replicates 1-3, Fig. 2b source data, 1 µM): 96.841% and 106.468%; remaining activity at 1 µM ([1]; [Inhibitor] 1 μM, technical replicates 1-3, Fig. 2b source data, read-out: EN activity, percent of no inhibitor control): 95.4%; EN activity, percent of no inhibitor control ([1]; [Inhibitor] 5 μM, technical replicates 1-3, Fig. 2b source data, 5 µM): 89.9598% and 81.1542%; remaining activity at 5 µM ([1]; [Inhibitor] 5 μM, technical replicates 1-3, Fig. 2b source data, read-out: EN activity, percent of no inhibitor control): 92%; EN activity, percent of no inhibitor control ([1]; [Inhibitor] 20 μM, technical replicates 1-3, Fig. 2b source data, 20 µM): 104.354% and 99.6299%; remaining activity at 20 µM ([1]; [Inhibitor] 20 μM, technical replicates 1-3, Fig. 2b source data, read-out: EN activity, percent of no inhibitor control): 87.7%; EN activity, percent of no inhibitor control ([1]; [Inhibitor] 750 μM, technical replicates 1-3, Fig. 2b source data, 750 µM): 45.0869% and 49.2787%; remaining activity at 750 µM ([1]; [Inhibitor] 750 μM, technical replicates 1-3, Fig. 2b source data, read-out: EN activity, percent of no inhibitor control): 52.5%
NC[C@H]1CC[C@H](C(=O)O)CC1 [tranexamic acid, reference compound] |  |  |  |  |  |  |  |  |  |  |  |  |  |  |  |  |  |  |  | IC50 in the fluorescent oligonucleotide assay [1]: does not inhibit sufficiently to calculate an; inhibition at 25000 µM ([1]; 25 mM, highest soluble concentration): ~75%
